Test results from patent US10202413B2, “Neuroactive enantiomeric 15-, 16- and 17-substituted steroids as modulators for GABA type-A receptors” (priority 2013, dated 2019).
Where two headings read alike, the source gives them in different places. Marks after values point to notes of the source that are not given here.

What was measured:
[1] = molecular target: picrotoxin binding site on GABAA receptors; assay: [35S]-TBPS displacement (inhibition of [35S]-TBPS binding); conditions: non-competitive displacement of [35S]-TBPS; ± standard error of the mean
Protocol: The IC50 values for the compounds of the examples as non-competitive displacers of [^35S]-TBPS from the picrotoxin binding site on GABAA receptors are reported in Table 1.
Results presented are from duplicate experiments performed in triplicate. Error limits are calculated as standard error of the mean. Methods used are known in the art (see, e.g., Jiang, et al., Neurosteroid analogues. 9. Conformationally constrained pregnanes: structure-activity studies of 13,24-cyclo-18,21-dinorcholane analogues of the GABA modulatory and anesthetic steroids (3α,5α)- and (3α,5β)-3-hydroxypregnan-20-one. J. Med. Chem. 2003, 46, 5334-5348).

[2] = molecular target: T1, rat α1β2γ2L type GABAA receptors expressed in Xenopus laevis oocytes (Rattus norvegicus, UniProt P18508+P62813+P63138, INS375LLRMFSFK); assay: Oocyte electrophysiology: potentiation of chloride currents mediated by 2 μM GABA, and direct gating; type: cell-based; conditions: ± SEM (N≥4); for ratio of currents measured in the presence/absence of added compound, 0.1 μM: 0.1 μM compound; for ratio of currents measured in the presence/absence of added compound, 0.1 μM / ratio of currents measured in the presence/absence of added compound, 1.0 μM / ratio of currents measured in the presence/absence of added compound, 10 μM: 2 μM GABA; for ratio of currents measured in the presence/absence of added compound, 1.0 μM: 1.0 μM compound; for ratio of currents measured in the presence/absence of added compound, 10 μM: 10 μM compound; for (gating) 10 μM: ratio of compound only current/GABA current: direct current gated by 10 μM compound in the absence of GABA
T1 construct: expressed in transfected cells; host or cells: Xenopus laevis oocytes
Protocol: The compounds of the present disclosure were evaluated for the ability to potentiate chloride currents mediated by 2 μM GABA at rat α1β2γ2L type GABAA receptors expressed in Xenopus laevis oocytes and the results are shown in Table 2.
The GABA concentration used for the control response was 2 μM. Each compound was evaluated on at least four different oocytes at the concentrations indicated, and the results reported are the ratio of currents measured in the presence/absence of added compound. Gating represents direct current gated by 10 μM compound in the absence of GABA, and this current is reported as the ratio of compound only current/[…] current. Error limits are calculated as standard error of the mean (N≥4). Receptor expression and whole-cell and single-channel recordings were carried out as described previously (see Jiang, et al., Neurosteroid analogues. 9. Conformationally constrained pregnanes: structure-activity studies of 13,24-cyclo-18,21-dinorcholane analogues of the GABA modulatory and anesthetic steroids (3α,5α)- and (3α,5β)-3-hydroxypregnan-20-one. J. Med. Chem. 2003, 46, 5334-5348).

Tadpole = Tadpole loss of righting (LRR) and loss of swimming (LSR) reflexes; type: in vivo; conditions: for EC50: ± SEM; for tadpoles that lost LRR / tadpoles that lost LSR: concentration of 3 μM, number of 10 tadpoles
Description: Table 3 discloses the anesthetic effects of the compounds of the present disclosure. In particular, the anesthetic effect of the compounds of the present disclosure on Loss of Righting Reflex (LRR) and Loss of Swimming Reflex (LSR).
Methods used are known in the art (see, e.g., Jiang, et al., Neurosteroid analogues. 9. Conformationally constrained pregnanes: structure-activity studies of 13,24-cyclo-18,21-dinorcholane analogues of the GABA modulatory and anesthetic steroids (3α,5α)- and (3α,5β)-3-hydroxypregnan-20-one. J. Med. Chem. 2003, 46, 5334-5348). Error limits are calculated as standard error of the mean (N=10 or more animals at each of five or more different concentrations).

mice = assay: Mouse duration of anesthesia (LRR) after tail vein injection; type: in vivo
Protocol: The compounds were dissolved in 22.5% aqueous 2-(hydroxypropyl)-β-cyclodextrin. For compound 28, serial dilutions of a 8 mg/kg stock solution with 0.9% saline were made to obtain the lower doses tested.
At a dose of 8 mg/kg, compound MQ-35 caused LRR of about 3 minutes and at a dose of 16 mg/kg duration of LRR was increased to about 7 minutes.
At 4 mg/kg, LRR induced by KK-122 lasted about 5 minutes and at a dose of 8 mg/kg LRR lasted for about 9 minutes. For all three compounds, the onset of anesthesia was immediate (i.e., less than 30 seconds) and recovery was characterized by a rapid progression over 1-2 minutes from an initial return of leg movement followed by righting and subsequent walking around the cage.

[3] = loss of righting reflex, read-out: Tadpole LRR EC50
[4] = loss of swimming reflex, read-out: Tadpole LSR EC50

T1 sequence (P62813 28-455, stated change not applied): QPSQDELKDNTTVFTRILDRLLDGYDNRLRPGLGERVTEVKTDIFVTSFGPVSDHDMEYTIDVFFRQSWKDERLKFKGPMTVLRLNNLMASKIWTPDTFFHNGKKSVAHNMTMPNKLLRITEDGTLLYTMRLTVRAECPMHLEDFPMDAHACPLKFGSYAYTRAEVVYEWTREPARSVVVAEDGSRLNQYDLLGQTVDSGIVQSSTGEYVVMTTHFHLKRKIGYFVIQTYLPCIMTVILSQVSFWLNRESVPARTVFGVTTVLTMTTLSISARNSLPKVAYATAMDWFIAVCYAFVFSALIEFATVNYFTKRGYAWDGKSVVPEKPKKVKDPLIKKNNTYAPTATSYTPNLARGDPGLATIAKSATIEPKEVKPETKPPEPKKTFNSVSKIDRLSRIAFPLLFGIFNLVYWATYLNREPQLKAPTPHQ
T1 sequence (P63138 26-474, stated change not applied): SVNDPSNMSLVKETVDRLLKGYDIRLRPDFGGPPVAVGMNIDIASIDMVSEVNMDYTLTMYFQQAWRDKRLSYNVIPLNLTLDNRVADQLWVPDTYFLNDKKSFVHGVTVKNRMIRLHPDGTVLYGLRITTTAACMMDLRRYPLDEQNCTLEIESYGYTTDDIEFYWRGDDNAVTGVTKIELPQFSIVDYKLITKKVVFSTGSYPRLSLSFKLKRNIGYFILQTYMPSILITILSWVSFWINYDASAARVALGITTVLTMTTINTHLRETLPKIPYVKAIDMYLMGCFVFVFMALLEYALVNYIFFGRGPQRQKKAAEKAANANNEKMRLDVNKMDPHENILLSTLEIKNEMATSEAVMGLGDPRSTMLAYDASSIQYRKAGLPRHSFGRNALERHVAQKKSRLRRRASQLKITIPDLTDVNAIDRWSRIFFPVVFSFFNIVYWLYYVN
T1 sequence (P18508 with tags, fused parts or gaps INS375LLRMFSFK): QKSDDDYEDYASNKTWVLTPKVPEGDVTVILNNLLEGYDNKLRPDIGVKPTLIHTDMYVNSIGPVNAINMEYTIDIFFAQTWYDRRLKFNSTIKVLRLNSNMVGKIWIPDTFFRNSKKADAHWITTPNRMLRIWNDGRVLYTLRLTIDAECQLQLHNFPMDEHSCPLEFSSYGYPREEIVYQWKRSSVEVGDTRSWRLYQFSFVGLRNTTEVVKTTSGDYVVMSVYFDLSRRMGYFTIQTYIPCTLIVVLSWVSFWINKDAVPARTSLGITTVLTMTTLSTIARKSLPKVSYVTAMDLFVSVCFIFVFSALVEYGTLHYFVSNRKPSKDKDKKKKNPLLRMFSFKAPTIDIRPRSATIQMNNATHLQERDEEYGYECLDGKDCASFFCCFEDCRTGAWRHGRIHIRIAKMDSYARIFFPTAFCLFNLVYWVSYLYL

SMILES	IC50 [1] [nM]	ratio of currents measured in the presence/absence of added compound, 0.1 μM [2]	ratio of currents measured in the presence/absence of added compound, 1.0 μM [2]	ratio of currents measured in the presence/absence of added compound, 10 μM [2]	(gating) 10 μM: ratio of compound only current/GABA current [2]	EC50 (Tadpole; [3]) [nM]	EC50 (Tadpole; [4]) [nM]	duration of anesthesia (LRR) (mice; 1 mg/kg)	duration of anesthesia (LRR) (mice; 4 mg/kg)	duration of anesthesia (LRR) (mice; 8 mg/kg)	duration of anesthesia (LRR) (mice; threshold dose of 2 mg/kg)	melting point [°C]	tadpoles that lost LRR (Tadpole)	tadpoles that lost LSR (Tadpole)	duration of anesthesia (LRR) (mice; 16 mg/kg)
CO[C@H]1[C@H]2CC[C@@H]3[C@H]4CC(=O)C[C@]4(C)CC[C@H]3[C@]2(C)CC[C@@H]1O [KK-122, (3β,4α,5β,8α,9β,10α,3α,14β)-3-Hydroxy-4-methoxyandrostan-16-one]	83 ± 11	1.41 ± 0.07	6.48 ± 0.40	16.00 ± 2.21	0.08 ± 0.03	340 ± 400	1730 ± 30	no LRR was observed	about 5 minutes	about 9 minutes	about 1 minute	198 to 200	–	–	–
C[C@@]12CC[C@H](O)C[C@H]1CC[C@H]1[C@H]2CC[C@@]2(C)C=C(C#N)C[C@H]12 [KK-141, (3β,5β,8α,9β,10α,13α,14β)-3-Hydroxyandrost-16-ene-16-carbonitrile]	154 ± 19	1.08 ± 0.11	1.35 ± 0.08	1.58 ± 0.13	0.08 ± 0.06	–	–	–	–	–	–	247 to 249	5/10^b	0/10^c	–
C[C@@]12CC[C@@H]3[C@H](CC[C@@H]4C[C@@H](O)CC[C@]43C)[C@H]1C[C@@H](C#N)C2 [KK-142, (3β,5β,8α,9β,10α,13α,14β,16α)-3-Hydroxyandrost-16-carbonitrile]	29 ± 3	2.20 ± 0.20	8.83 ± 3.12	13.32 ± 4.54	0.03 ± 0.01	–	–	–	–	–	–	206 to 208	10/10^a	10/10^a	–
C[C@@]12CC[C@@H]3[C@H](CC[C@@H]4C[C@@H](O)CC[C@]43C)[C@H]1CC(=O)C2 [MQ-35, (3β,5β,8α,9β,10α,13α,14β)-3-Hydroxyandrostan-16-one]	81 ± 8	1.42 ± 0.02	7.72 ± 0.39	34.70 ± 1.69	0.15 ± 0.04	550 ± 90	1730 ± 40	–	–	about 3 minutes	–	152 to 153	–	–	about 7 minutes
CO[C@H]1CC[C@]2(C)CC[C@@H]3[C@H](CC[C@@H]4C[C@@H](O)CC[C@]43C)[C@@H]12 [MQ-117, (3β,5β,8α,9β,10α,13α,14β,15α)-15-Methxoyandrostan-3-ol]	19 ± 8	3.43 ± 0.29	11.10 ± 1.16	26.20 ± 2.91	0.06 ± 0.02	79 ± 3	330	–	–	–	–	137 to 139	–	–	–
C[C@@]12CC[C@@H]3[C@H](CC(=O)[C@@H]4C[C@@H](O)CC[C@@]34C)[C@H]1CC(=O)C2 [MQ-124, (3β,5β,8α,9β,10α,13α,14β)-3-Hydroxyandrostane-6,16-dione]	8950 ± 1860	0.68 ± 0.03	0.85 ± 0.03	1.57 ± 0.05	−0.01 ± 0	> 10000	> 10000	–	–	–	–	205 to 207	–	–	–
CO[C@@H]1C[C@@H]2[C@H]3C[C@H](OC)[C@@H]4C[C@@H](O)CC[C@@]4(C)[C@@H]3CC[C@@]2(C)C1 [MQ-125, (3β,5β,6α,8α,9β,10α,13α,14β,16α)-6,16-Dimethoxyandrostan3-ol]	121 ± 10	1.19 ± 0.18	5.02 ± 0.40	14.08 ± 2.23	0.43 ± 0.41	–	–	–	–	–	–	127 to 129	10/10^a	10/10^a	–
CC(=O)[C@H]1CC[C@H]2[C@@H]3CC[C@H]4C[C@H](O)CC[C@]4(C)[C@H]3C(=O)C[C@]12C [alphaxalone, reference compound]	–	–	–	–	–	–	–	–	–	–	–	–	–	–	about 4 minutes
